Here are results for 1 compound from paper PMC3293077, “Pharmacokinetics of high-dose oral thiamine hydrochloride in healthy subjects” (BMC Clinical Pharmacology, 2012).

Structures can show the parent of a compound that is named as a salt. Where two headings read alike, the source gives them in different places.

The conditions of data set [1]: single oral doses 100, 500, 1500 mg, healthy subjects; study not designed to detect adverse events. From the text:
Subjects participated in a randomized, double-blind, single-dose, 4-way crossover study with a minimum of 1 week elapsing between trials.

For data set [2] the following is noted: cited from earlier work.
The conditions of data set [3]: mean ± SD; for AUC0-10 hr: baseline-corrected. The procedure: Subjects participated in a randomized, double-blind, single-dose, 4-way crossover study with a minimum of 1 week elapsing between trials. The 4 treatment groups were:
Subjects fasted overnight except for water. […] After 1 hour they were administered the study medication. Additional blood specimens were obtained immediately prior to the study medication and at 0.5, 1, 1.5, 2, 3, 4, 5, 6, 8, and 10 hours after taking the study medication. Subjects received a standardized lunch after the 6-hour blood draw. All blood specimens were drawn in duplicate (for plasma and whole blood assays) in 3 mL lavender-top vacutainers® containing K2EDTA. They were immediately placed in an ice bath and protected from the light. One vacutainer® of each pair was centrifuged at 3000 RPM for 20 min at 4°C to separate the plasma. The plasma sample and whole blood sample were then frozen at -70°C.
Thiamine tablets each containing 100 mg of thiamine hydrochloride were used (Amneal Pharmaceuticals). These were placed intact into opaque capsules. Identical capsules containing sucrose tablets were used as placebo such that the same number of capsules were used for each trial.
Quest Diagnostics analyzed all specimens for total thiamine using HPLC [4]. At Quest Diagnostics, plasma was deproteinized and then incubated with acid phosphatase to convert thiamine phosphate esters to free thiamine. The free thiamine was then oxidized to thiochrome by the addition of alkaline potassium ferricyanide. Depending on the age of the column and the temperature of the room, thiochrome retention time varied from 2.5 to 3.0 min. The mixture was injected to a Supelco (Bellefonte, PA, USA) high-performance liquid chromatographic column (7.5 cm^3 4.6 mm, particle size […]) connected to a high-performance liquid chromatographic system using a Hitachi (Pleasant, CA, USA) pump, autosampler, and fluorescent detector (excitation wavelength 365 nm, emission wavelength 440 nm). The mobile phase was 75 mmol/L of potassium phosphate at pH 7.5 with 25% methanol. The flow rate was set at 1.0 mL/min. Through this process, the thiochrome was then separated from other interfering substances and then measured fluorometrically. The amount of total thiamine in an unknown sample is proportional to the amount of thiochrome formed. The limit of quantification is 7 nmol/L. The assay range is 7 to 450 nmol/L. Samples with values above this range were diluted. The coefficient of variation for both the plasma and whole blood thiamine assays was calculated from the data collected in this study.
The thiamine levels were corrected by subtracting the baseline value. The baseline value was calculated as the average of the -1-hour and 0-hour values. Net systemic exposure to thiamine in each subject in each trial was quantitated using the area under the whole blood or plasma concentration curve from time zero through 10 hours after dosage (AUC0-10 hr). This was calculated using the cubic splines method. The overall effect of treatment condition (thiamine dose) on AUC0-10 hr in blood and plasma was tested using analysis of variance (ANOVA) for repeated measures. This was followed by the Student-Newman-Keuls procedure, nonparametric form, for evaluating all pairwise comparisons of the mean AUC0-10 hr values for the dosage groups. The peak thiamine concentration (Cmax) and the time to peak thiamine concentration (Tmax) were also calculated. Finally, half-life (t1\2) values were calculated where the terminal phase appeared log-linear.

[4] abbreviates: plasma, 100 mg oral single dose.
The mark [5] stands for this setting: plasma, 500 mg oral single dose.
[6] abbreviates: plasma, 1500 mg oral single dose.
Where [7] appears, read: whole blood, 100 mg oral single dose.
The mark [8] stands for this setting: whole blood, 500 mg oral single dose.
Setting [9] is: whole blood, 1500 mg oral single dose.

For the compound `Cc1ncc(C[n+]2csc(CCO)c2C)c(N)n1` [thiamine hydrochloride], the side effects result in data set [1] was “no side effects were reported”; in data set [2] (titrated up to 8000 mg per day over 1 year, in 2 subjects at 7000 and 7500 mg per day), “nausea and indigestion”. Moreover, the adverse effects result in data set [2] (1000 mg oral three times a day for 2 to 12 months, Alzheimer's disease) is “without any reports of adverse effects”. Besides, the AUC0-10 hr in data set [3] (setting [4]) came to 0.177 ± 0.062 µM·h; in data set [3] (setting [5]), 0.612 ± 0.257 µM·h; in data set [3] (setting [6]) it was 2.059 ± 1.415 µM·h; in data set [3] (setting [7]), 0.214 ± 0.069 µM·h; in data set [3] (setting [8]), 0.623 ± 0.178 µM·h; in data set [3] (setting [9]) it was 2.046 ± 1.222 µM·h. In addition, the Cmax in data set [3] (setting [4]) was 39 ± 13 nM; in data set [3] (setting [5]), 113 ± 42 nM; in data set [3] (setting [6]) it was 397 ± 250 nM; in data set [3] (setting [7]) it was 40 ± 11 nM; in data set [3] (setting [8]), 95 ± 27 nM; in data set [3] (setting [9]), 385 ± 188 nM.
